PubChem BioAssay AID248 (DTP/NCI, 2004)
“And” between values parts separate entries of the source, which are not always exact repeats. Equal entries are not always repeated. Toxic doses and inconclusive results are not listed. No stated cut-off is given here; in the data, active means T/C of 150% or more; inactive means T/C below 125%.

Tested on: L1210 leukemia ip in BDF1 mice, survival T/C
Experiment: NCI In Vivo Anticancer Drug Screen. Data for tumor model L1210 Leukemia (intraperitoneal) in B6D2F1 (BDF1) mice
Conditions: endpoint: mean survival time, higher = longer survival
How it was run: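 Transplanted-tumor mice were given test agent; controls received vehicle only. Survival readings from the two groups were divided (treated over control).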

[1] = dose: 100.0 mg/kg/injection, schedule: Q04DX002 (ip), vehicle: saline with Tween-80
[2] = dose: 200.0 mg/kg/injection, schedule: Q04DX002 (ip), vehicle: saline with Tween-80
[3] = dose: 400.0 mg/kg/injection, schedule: Q04DX002 (ip), vehicle: saline with Tween-80
[4] = dose: 50.0 mg/kg/injection, schedule: Q04DX002 (ip), vehicle: Klucel (hydroxypropylcellulose) (HPC)
[5] = dose: 100.0 mg/kg/injection, schedule: Q04DX002 (ip), vehicle: Klucel (hydroxypropylcellulose) (HPC)
[6] = dose: 200.0 mg/kg/injection, schedule: Q04DX002 (ip), vehicle: Klucel (hydroxypropylcellulose) (HPC)
[7] = dose: 100.0 mg/kg/injection, schedule: Q01DX001 (ip), vehicle: carboxymethylcellulose (CMC)
[8] = dose: 200.0 mg/kg/injection, schedule: Q01DX001 (ip), vehicle: carboxymethylcellulose (CMC)
[9] = dose: 400.0 mg/kg/injection, schedule: Q01DX001 (ip), vehicle: carboxymethylcellulose (CMC)
[10] = dose: 100.0 mg/kg/injection, schedule: Q04DX003 (ip), vehicle: Klucel (hydroxypropylcellulose) (HPC)
[11] = dose: 50.0 mg/kg/injection, schedule: Q01DX001 (ip), vehicle: carboxymethylcellulose (CMC)
[12] = dose: 100.0 mg/kg/injection, schedule: Q01DX001 (ip), vehicle: Klucel (hydroxypropylcellulose) (HPC)
[13] = dose: 200.0 mg/kg/injection, schedule: Q01DX001 (ip), vehicle: Klucel (hydroxypropylcellulose) (HPC)
[14] = dose: 400.0 mg/kg/injection, schedule: Q01DX001 (ip), vehicle: Klucel (hydroxypropylcellulose) (HPC)

Measured: T/C

O=C1CCC/C1=C/c1ccco1
inactive: [1] 105 % of control | [2] 105 % of control | [3] 94 % of control

CCCCC(CC)(CC)OC(=O)c1ccc([N+](=O)[O-])cc1
inactive: [1] 87 % of control | [2] 106 % of control | [3] 98 % of control

COc1ccc(/C=N\NC(=O)N/N=C/c2ccc(OC)c(Br)c2)cc1Br
inactive: [4] 106 % of control | [5] 98 % of control and 103 % of control | [6] 88 % of control | dose: 400.0 mg/kg/injection, schedule: Q04DX002 (ip), vehicle: Klucel (hydroxypropylcellulose) (HPC) 91 % of control

Cc1ccc(C(=NN=C(N)N)c2ccc(C)cc2)cc1
inactive: dose: 3.75 mg/kg/injection, schedule: Q01DX Z (ip), vehicle: saline 101 % of control | dose: 7.5 mg/kg/injection, schedule: Q01DX Z (ip), vehicle: saline 95 % of control | dose: 7.5 mg/kg/injection, schedule: Q01DX Z (oral), vehicle: saline 98 % of control | dose: 15.0 mg/kg/injection, schedule: Q01DX Z (ip), vehicle: saline 93 % of control and 94 % of control | dose: 15.0 mg/kg/injection, schedule: Q01DX Z (oral), vehicle: saline 96 % of control | dose: 30.0 mg/kg/injection, schedule: Q01DX Z (ip), vehicle: saline 104 % of control | dose: 30.0 mg/kg/injection, schedule: Q01DX Z (oral), vehicle: saline 101 % of control | dose: 60.0 mg/kg/injection, schedule: Q01DX Z (oral), vehicle: saline 101 % of control

CCN(CC)CC(=O)NCC(CCCCN1CCCC1)(c1cccc2ccccc12)C(C)C (configuration not stated)
inactive: dose: 6.25 mg/kg/injection, schedule: Q04DX003 (ip), vehicle: saline 104 % of control | dose: 12.5 mg/kg/injection, schedule: Q04DX003 (ip), vehicle: saline 110 % of control | dose: 25.0 mg/kg/injection, schedule: Q04DX003 (ip), vehicle: saline 93 % of control

Cc1nc2ccccc2cc1CO
inactive: dose: 100.0 mg/kg/injection, schedule: Q04DX003 (ip), vehicle: saline with Tween-80 105 % of control | dose: 200.0 mg/kg/injection, schedule: Q04DX003 (ip), vehicle: saline with Tween-80 102 % of control | dose: 400.0 mg/kg/injection, schedule: Q04DX003 (ip), vehicle: saline with Tween-80 102 % of control

O=C(Nc1cccc(Cl)c1)OCC#CCN1CCCC1
inactive: dose: 5.0 mg/kg/injection, schedule: Q01DX001 (ip), vehicle: saline 105 % of control | dose: 9.0 mg/kg/injection, schedule: Q01DX001 (ip), vehicle: saline 95 % of control and 101 % of control | dose: 10.0 mg/kg/injection, schedule: Q01DX001 (ip), vehicle: saline 105 % of control | dose: 13.0 mg/kg/injection, schedule: Q01DX001 (ip), vehicle: saline 97 % of control and 104 % of control | dose: 20.0 mg/kg/injection, schedule: Q01DX001 (ip), vehicle: saline 98 % of control and 101 % of control | dose: 30.0 mg/kg/injection, schedule: Q01DX001 (ip), vehicle: saline 98 % of control and 101 % of control | dose: 40.0 mg/kg/injection, schedule: Q01DX001 (ip), vehicle: saline 101 % of control | dose: 80.0 mg/kg/injection, schedule: Q01DX001 (ip), vehicle: saline 111 % of control

CN1C(c2ccccc2)(c2ccccc2)c2ccccc2S1(=O)=O
inactive: [7] 95 % of control | [8] 95 % of control | [9] 93 % of control

CC1(C)CN=C(c2ccc([N+](=O)[O-])cc2)O1
inactive: dose: 75.0 mg/kg/injection, schedule: Q04DX003 (ip), vehicle: Klucel (hydroxypropylcellulose) (HPC) 108 % of control | dose: 150.0 mg/kg/injection, schedule: Q04DX003 (ip), vehicle: Klucel (hydroxypropylcellulose) (HPC) 94 % of control | dose: 300.0 mg/kg/injection, schedule: Q04DX003 (ip), vehicle: Klucel (hydroxypropylcellulose) (HPC) 89 % of control

CS(=O)(=O)c1nc2ccccc2s1
inactive: dose: 25.0 mg/kg/injection, schedule: Q01DX009 (ip), vehicle: saline with Tween-80 97 % of control | dose: 25.0 mg/kg/injection, schedule: Q04DX003 (ip), vehicle: Klucel (hydroxypropylcellulose) (HPC) 101 % of control | dose: 50.0 mg/kg/injection, schedule: Q01DX009 (ip), vehicle: saline with Tween-80 92 % of control | dose: 50.0 mg/kg/injection, schedule: Q04DX003 (ip), vehicle: Klucel (hydroxypropylcellulose) (HPC) 106 % of control | dose: 100.0 mg/kg/injection, schedule: Q01DX009 (ip), vehicle: saline with Tween-80 107 % of control | [10] 106 % of control

COC1OC2COC(c3ccccc3)OC2C(OC(=O)c2ccccc2)C1OC(=O)c1ccccc1 (configuration not stated)
inactive: dose: 12.5 mg/kg/injection, schedule: Q04DX002 (ip), vehicle: Klucel (hydroxypropylcellulose) (HPC) 104 % of control | dose: 25.0 mg/kg/injection, schedule: Q04DX002 (ip), vehicle: Klucel (hydroxypropylcellulose) (HPC) 100 % of control | [4] 98 % of control

C#CCCCc1ccccc1
inactive: [11] 102 % of control | [7] 98 % of control | [8] 96 % of control | [9] 96 % of control

CC(=O)c1ccc(NC(=O)C(F)(F)F)cc1
inactive: [11] 101 % of control | [7] 95 % of control | [8] 97 % of control | [9] 92 % of control

CC1(C)OCC(C2OC(=S)OC2C2COC(C)(C)O2)O1 (configuration not stated)
inactive: [4] 93 % of control | [5] 98 % of control | [6] 104 % of control

C/C=C/C=C\COC(=O)CC
inactive: dose: 100.0 mg/kg/injection, schedule: Q04DX002 (ip), vehicle: saline 103 % of control | dose: 200.0 mg/kg/injection, schedule: Q04DX002 (ip), vehicle: saline 100 % of control | dose: 400.0 mg/kg/injection, schedule: Q04DX002 (ip), vehicle: saline 103 % of control

Cc1nccnc1S(=O)c1ccc(Br)cc1 (configuration not stated)
inactive: [12] 98 % of control | [13] 95 % of control | [14] 92 % of control

C=CC(=O)NC(C)C(=O)O (configuration not stated)
inactive: dose: 100.0 mg/kg/injection, schedule: Q01DX001 (ip), vehicle: saline 95 % of control | dose: 200.0 mg/kg/injection, schedule: Q01DX001 (ip), vehicle: saline 102 % of control | dose: 400.0 mg/kg/injection, schedule: Q01DX001 (ip), vehicle: saline 98 % of control

CCN(CC)CCCC(C)Nc1cc(N)nc2nc(-c3ccccc3)cnc12 (configuration not stated) (tested in a mixture with another compound)
inactive: dose: 75.0 mg/kg/injection, schedule: Q01DX001 (ip), vehicle: saline 86 % of control and 91 % of control | dose: 150.0 mg/kg/injection, schedule: Q01DX001 (ip), vehicle: saline 97 % of control

CC(=O)OCC1OC(S[As](C)C)C(OC(C)=O)C(OC(C)=O)C1OC(C)=O (configuration not stated)
inactive: dose: 100.0 mg/kg/injection, schedule: Q01DX009 (ip), vehicle: Klucel (hydroxypropylcellulose) (HPC) 101 % of control | [10] 101 % of control | dose: 200.0 mg/kg/injection, schedule: Q01DX009 (ip), vehicle: Klucel (hydroxypropylcellulose) (HPC) 103 % of control | dose: 200.0 mg/kg/injection, schedule: Q04DX003 (ip), vehicle: Klucel (hydroxypropylcellulose) (HPC) 100 % of control | dose: 400.0 mg/kg/injection, schedule: Q04DX003 (ip), vehicle: Klucel (hydroxypropylcellulose) (HPC) 100 % of control

CC1(C)CC2(OC2c2cccc([N+](=O)[O-])c2)C(=O)c2ccccc21 (configuration not stated)
inactive: [12] 90 % of control | [13] 95 % of control | [14] 92 % of control
